# Assay results published in PubChem BioAssay AID1117337 (Cheminformatics & Chemogenomics Research Group (CCRG), …, 2015).
# Activity calls are given as the source filed them. How the calls were made is not given here. *1 amine or outer side, *2 acyl side, *3 side chain or, on linkers, in order; H or OH if unused. Where a SMILES comes first, the peptide text is derived from it. Bridges are numbered along the chain shown (N, C = ends). Roman numbers before positions name the chains, in order. [ ]: non-standard residue; d: D form. Actinocin(9to1) = Cc1c2oc3c(C)ccc(C(=O)[*:1])c3nc-2c(C(=O)[*:2])c(N)c1=O; NMeV = CN[C@H](C(=O)O)C(C)C; Sar = CNCC(=O)O
# Tested on: ADSC/ECFC co-culture, VEGF-stimulated, CD31 tube area
# Test: ADSC/ECFC co-culture angiogenesis inhibition – imaging, VEGF stimulation, CD31 staining, tube area, IC50, dose response (AID 1117337)
row,SMILES,IC50
1,O=C(CCl)c1ccc(Cl)cc1Cl,2.49 µM
2,CNC(=O)Oc1cccc2ccccc12,> 10 µM (inactive)
3,COc1cc(S(N)(=O)=O)cc(C(=O)O)c1OC,> 10 µM (inactive)
4,CC[C@@H]([C@H](C)O)n1ncn(-c2ccc(N3CCN(c4ccc(OC[C@@H]5CO[C@@](Cn6cncn6)(c6ccc(F)cc6F)C5)cc4)CC3)cc2)c1=O,6.46 µM (inactive)
5,COCC(=O)O[C@]1(CCN(C)CCCc2nc3ccccc3[nH]2)CCc2cc(F)ccc2[C@@H]1C(C)C,> 10 µM (inactive)
6,Cc1cccc(Nc2cc(Cl)nc(SCC(=O)O)n2)c1C,> 10 µM (inactive)
7,C1CN(P2(N3CC3)=NP(N3CC3)(N3CC3)=NP(N3CC3)(N3CC3)=N2)CCO1 (configuration not stated),3.62 µM
8,CCCCCCOC(=O)c1cccnc1,> 10 µM (inactive)
9,O=[N+]([O-])c1cc(I)c(O)c(I)c1,> 10 µM (inactive)
10,CN(C)c1ccc(C(=C2C=CC(=[N+](C)C)C=C2)c2ccccc2)cc1,0.0605 µM
11,CCOC(=O)C1=C[C@]2(CC)CCCN3CCc4c(n1c1ccccc41)[C@@H]32,> 10 µM (inactive)
12,O=C(CCN1CCC(c2ccccc2)C1)c1ccc2c(c1)OCCO2 (configuration not stated),> 10 µM (inactive)
13,CN1CCCC(CC2c3ccccc3Sc3ccccc32)C1 (configuration not stated),8.68 µM (inactive)
14,O=c1[nH]c(=O)n([C@H]2C[C@H](O)[C@@H](CO)O2)cc1Br,3.85 µM
15,CN(C)CCCN1c2ccccc2Sc2ccc(Cl)cc21,> 10 µM (inactive)
16,Cc1cc(OI)c(C(C)C)cc1-c1cc(C(C)C)c(OI)cc1C,> 10 µM (inactive)
17,Clc1ccccc1C(c1ccccc1)(c1ccccc1)n1ccnc1,3.04 µM
18,CC(C)=CCCC(C)=CCCC(C)=CCCC=C(C)CCC=C(C)CCC=C(C)C,> 10 µM (inactive)
19,CCCCCCCCCCOCC(O)CN (configuration not stated),6.55 µM (inactive)
20,CCCCCCCCCCCCCCNCCO,> 10 µM (inactive)
21,CN(C)CCOC1=Cc2ccccc2Sc2ccc(Cl)cc21,> 10 µM (inactive)
22,COP(=S)(OC)Oc1ccc(Sc2ccc(OP(=S)(OC)OC)cc2)cc1,> 10 µM (inactive)
23,CCCOc1ccc2nc(NC(=O)OC)[nH]c2c1,0.328 µM

row,SMILES,IC50
1,CCN(CC)CCOc1ccc(C(O)(Cc2ccc(Cl)cc2)c2ccc(C)cc2)cc1 (configuration not stated),3.21 µM
2,O=C(Nc1ccc([N+](=O)[O-])cc1Cl)c1cc(Cl)ccc1O,0.112 µM
3,CC(=O)NC(=O)c1ccccc1O,> 10 µM (inactive)
4,CC(=O)[C@]1(O)Cc2c(O)c3c(c(O)c2[C@@H](O[C@H]2C[C@H](N)[C@H](O)[C@H](C)O2)C1)C(=O)c1ccccc1C3=O,0.0208 µM
5,C[C@H]1O[C@@H](O[C@H]2[C@@H](O)C[C@H](O[C@H]3[C@@H](O)C[C@H](O[C@H]4CC[C@@]5(C)[C@H](CC[C@@H]6[C@@H]5CC[C@]5(C)[C@@H](C7=CC(=O)OC7)CC[C@]65O)C4)O[C@@H]3C)O[C@@H]2C)C[C@H](O)[C@@H]1O,0.011 µM
6,COc1cc(NCc2ccc3nc(N)nc(N)c3c2C)cc(OC)c1OC,4.42 µM
7,Cc1c(C)c2c(c(C)c1O)CC[C@@](C)(CCC[C@H](C)CCC[C@H](C)CCCC(C)C)O2,> 10 µM (inactive)
8,NC(=O)C1(N2CCCCC2)CCN(CCCN2c3ccccc3CCc3ccc(Cl)cc32)CC1,3.4 µM
9,CCN(CC)C(=O)c1cccnc1,> 10 µM (inactive)
10,C[C@]12CC[C@@H]3c4ccc(O)cc4CC[C@H]3[C@@H]1CC[C@@H]2OC(=O)CCC1CCCC1,6.37 µM (inactive)
11,Nc1ncn([C@@H]2O[C@H](CO)[C@@H](O)[C@H]2O)c(=O)n1,> 10 µM (inactive)
12,CC(=O)O[C@@]12CO[C@@H]1C[C@H](O)[C@@]1(C)C(=O)[C@H](O)C3=C(C)[C@@H](OC(=O)[C@H](O)[C@@H](NC(=O)OC(C)(C)C)c4ccccc4)C[C@@](O)([C@@H](OC(=O)c4ccccc4)[C@H]21)C3(C)C,0.001 µM
13,Cc1cc(N)c2ccccc2[n+]1CCCCCCCCCC[n+]1c(C)cc(N)c2ccccc21,> 10 µM (inactive)
14,CC(=O)O[C@H]1C[C@H](O[C@H]2[C@@H](O)C[C@H](O[C@@H]3[C@@H](O)C[C@H](O[C@H]4CC[C@@]5(C)[C@H](CC[C@@H]6[C@H]5C[C@@H](O)[C@]5(C)[C@@H](C7=CC(=O)OC7)CC[C@]65O)C4)O[C@@H]3C)O[C@@H]2C)O[C@H](C)[C@H]1O[C@@H]1O[C@H](CO)[C@@H](O)[C@H](O)[C@@H]1O,0.0702 µM
15,CCCCCCCCCCCCCCCCCCOP(=O)([O-])OC1CC[N+](C)(C)CC1,> 10 µM (inactive)
16,O=c1[nH]c(=O)n([C@H]2C[C@H](O)[C@@H](CO)O2)cc1I,0.681 µM
17,Cc1cccc(C)c1NC(=O)CN1CCN(CCCC(c2ccc(F)cc2)c2ccc(F)cc2)CC1,> 10 µM (inactive)
18,O=[N+]([O-])c1ccc(Oc2ccc(N=C=S)cc2)cc1,3.72 µM
19,CC(C)CCCC(C)NCCC(C)C (configuration not stated),> 10 µM (inactive)
20,CCOc1ccc2nc3cc(N)ccc3c(N)c2c1,4.94 µM
21,c1ccc2c(c1)Sc1ccccc1N2CC1CN2CCC1CC2 (configuration not stated),9.44 µM (inactive)
22,CCc1oc2ccccc2c1C(=O)c1cc(I)c(O)c(I)c1,5.85 µM (inactive)
23,O=C(O)C1(C(=O)O)CCC1.[NH2-].[NH2-].[Pt+2],> 10 µM (inactive)

row,SMILES,IC50
1,CCCCCCNC(=O)n1cc(F)c(=O)[nH]c1=O,4.49 µM
2,Clc1ccc(Nc2nnc(Cc3ccncc3)c3ccccc23)cc1,0.111 µM
3,Cc1ccc(Nc2nccc(N(C)c3ccc4c(C)n(C)nc4c3)n2)cc1S(N)(=O)=O,0.0465 µM
4,C[C@@H]1C[C@@H]([C@H](O)CC2CC(=O)NC(=O)C2)C(=O)[C@@H](C)C1,1.15 µM
5,O=C(O)CCCc1ccc(N(CCCl)CCCl)cc1,1.24 µM
6,COc1cccc2c1C(=O)c1c(O)c3c(c(O)c1C2=O)C[C@@](O)(C(=O)CO)C[C@@H]3O[C@H]1C[C@H](N)[C@H](O[C@@H]2CCCCO2)[C@H](C)O1,0.0063 µM
7,CCC(C(=O)OCCOCCN(CC)CC)c1ccccc1 (configuration not stated),> 10 µM (inactive)
8,COc1cc([C@@H]2c3cc4c(cc3[C@H](O)[C@H]3COC(=O)[C@H]23)OCO4)cc(OC)c1OC,0.0081 µM
9,C/C(=N\O)[C@@H](C)NCC(C)(C)CN[C@H](C)/C(C)=N/O,> 10 µM (inactive)
10,C[C@@H](NCCCc1cccc(C(F)(F)F)c1)c1cccc2ccccc12,> 10 µM (inactive)
11,N/C(=N\N=C\c1ccc(Cl)cc1)N/N=C/c1ccc(Cl)cc1,> 10 µM (inactive)
12,CC(C)OC(=O)OCOP(=O)(CO[C@H](C)Cn1cnc2c(N)ncnc21)OCOC(=O)OC(C)C,3.84 µM
13,OCCN1CCN(CCCN2c3ccccc3Sc3ccc(Cl)cc32)CC1,> 10 µM (inactive)
14,"Cc1c2oc3c(C)ccc(C(=O)N[C@@H]4C(=O)N[C@H](C(C)C)C(=O)N5CCC[C@H]5C(=O)N(C)CC(=O)N(C)[C@@H](C(C)C)C(=O)O[C@@H]4C)c3nc-2c(C(=O)N[C@@H]2C(=O)N[C@H](C(C)C)C(=O)N3CCC[C@H]3C(=O)N(C)CC(=O)N(C)[C@@H](C(C)C)C(=O)O[C@@H]2C)c(N)c1=O (I: T[dV]P[Sar][NMeV] / II: T[dV]P[Sar][NMeV]; ester I:1-I:C, II:1-II:C; linker I:N-II:N via Actinocin(9to1))",0.001 µM
15,CCN(CC)CCNC(=O)c1c(C)[nH]c(/C=C2\C(=O)Nc3ccc(F)cc32)c1C,0.0254 µM
16,COCc1c(C(C)C)nc(C(C)C)c(/C=C/[C@@H](O)C[C@@H](O)CC(=O)O)c1-c1ccc(F)cc1,0.0894 µM
17,CCCCC1C(=O)N(c2ccccc2)N(c2ccc(O)cc2)C1=O (configuration not stated),3.29 µM
18,COc1ccc(-c2ccc3cc(C(=O)O)ccc3c2)cc1C12CC3CC(CC(C3)C1)C2,0.524 µM
19,NC(=O)n1c(O)c(C(=O)c2cccs2)c2cc(Cl)ccc21,> 10 µM (inactive)
20,NC(=O)c1cccnc1,> 10 µM (inactive)
21,CC(C)(C)C(=O)OCOP(=O)(COCCn1cnc2c(N)ncnc21)OCOC(=O)C(C)(C)C,0.391 µM
22,O=C1C(=O)c2ccccc2C(O)=C1C1CCC(c2ccc(Cl)cc2)CC1 (configuration not stated),5.18 µM (inactive)
23,COC(=O)Nc1nc2ccc(C(=O)C3CC3)cc2[nH]1,1.19 µM

row,SMILES,IC50
1,CC(=O)[O][Hg][c]1ccccc1,0.53 µM
2,CC(CC=O)CCCC(C)(C)O (configuration not stated),> 10 µM (inactive)
3,CSc1ccc(/C=C2/C(C)=C(CC(=O)O)c3cc(F)ccc32)cc1,> 10 µM (inactive)
4,C[C@@H]1C[C@H]2[C@@H]3CCC4=CC(=O)C=C[C@]4(C)[C@@]3(Cl)[C@@H](O)C[C@]2(C)[C@@]1(OC(=O)c1ccco1)C(=O)CCl,4.99 µM
5,CC(C)C[C@H](NC(=O)[C@H](CCc1ccccc1)NC(=O)CN1CCOCC1)C(=O)N[C@@H](Cc1ccccc1)C(=O)N[C@@H](CC(C)C)C(=O)[C@@]1(C)CO1,0.0204 µM
6,CCCCCCCCOC(=O)c1ccccc1C(=O)OCCCCCCCC,> 10 µM (inactive)
7,C[C@@H](O[C@H]1OCCN(Cc2n[nH]c(=O)[nH]2)[C@H]1c1ccc(F)cc1)c1cc(C(F)(F)F)cc(C(F)(F)F)c1,6.89 µM (inactive)
8,CC(C)(C)CC(C)(C)c1ccc(OCCOCC[N+](C)(C)Cc2ccccc2)cc1,3.74 µM
9,O=C1C2CC=CCC2C(=O)N1SC(Cl)(Cl)Cl (configuration not stated),> 10 µM (inactive)
10,CCN(CC)C(=O)/C(C#N)=C/c1cc(O)c(O)c([N+](=O)[O-])c1,> 10 µM (inactive)
11,CCCCCCCCCCCCCCCCCC[N+](C)(C)CCC[Si](OC)(OC)OC,> 10 µM (inactive)
12,COc1ccc(/C=C/C(=O)c2ccc(OC)cc2OC)cc1,6.66 µM (inactive)
13,C=CCCCCCCCCC(=O)OC,> 10 µM (inactive)
14,C[C@H](O)CN(C)C,> 10 µM (inactive)
15,CC(COc1ccccc1)NN (configuration not stated),> 10 µM (inactive)
16,CCCCCCCCCCCCCCCC[N+](C)(C)CC,1.14 µM
17,CCOC(=O)c1ccccc1C(=O)OCC,> 10 µM (inactive)
18,O=C1NC2CCCCN2C12CCN(CCCN1c3ccccc3CCc3ccc(Cl)cc31)CC2 (configuration not stated),> 10 µM (inactive)
19,CN1CCN(CCCN2c3ccccc3Sc3ccc(C(F)(F)F)cc32)CC1,> 10 µM (inactive)
20,Cc1onc(-c2c(Cl)cccc2Cl)c1C(=O)Cl,> 10 µM (inactive)
21,C#C[C@]1(O)CC[C@H]2[C@@H]3CCc4cc(O)ccc4[C@H]3CC[C@@]21C,> 10 µM (inactive)
22,CC(=O)Oc1cccc2c1C(=O)c1c(OC(C)=O)cc(C(=O)O)cc1C2=O,> 10 µM (inactive)
23,C/C(=C(/OCCOc1ccc(Cl)cc1)c1ccc(Cl)cc1Cl)n1ccnc1,5.84 µM (inactive)
